Consider 1 substance from patent US20140127185A1, “METHODS AND COMPOSITIONS USING NEUROPROTECTIVE STEROIDS AND THROMBOLYTIC AGENTS” (priority 2012, published 2014).

One test deals with occludin. The test can be described thus: Occludin in H/R-treated bEND3 cells (Western blot, immunofluorescence). It counts as cell-based, mouse. The procedure: An immortalized mouse brain endothelial cell line (bEND 3) is purchased from American Type Culture Collection (ATCC, VA, USA) and cultured in Dulbecco's modified Eagle Medium (DMEM, ATCC) supplemented with 10% fetal bovine serum (ATCC). bEND 3 cells are seeded onto the luminal side of a filter (0.4 μm pore size; Corning, Lowell, MCA) coated with fibronectin (5 μg/ml) in 12-well plates for a transendothelial electrical resistance (TEER) test; and in 100-mm dishes for Western blot studies. Cell cultures are incubated at 37° C. in a 5%/95% mixture of CO2 and atmospheric air, and the medium is replaced every 3 days.
Peri-infarct cortical tissue is processed for protein analysis. Tissues are homogenized in T-per (Pierce, Rockford, Ill.) containing protease inhibitor cocktail (P8340, Sigma). Homogenates are centrifuged for 15 minutes at 13,000 g. 40 μg of total protein is separated on 8-12% gel and transferred onto polyvinylidene difluoride (Millipore, Mass., USA; PVDF) membranes at 300 mA for 2 hours. To measure the level of immunoglobulin, the membranes were incubated overnight at 4° C. with anti Rat IgG conjugated to biotin. bEND 3 cells are subjected to hypoxia/reperfusion for 9 hours and then lysed on ice in 100 μl of RIPA buffer. Cell lysated are boiled and then electrophoresed in 12% SDS-PAGE acrylamide gels, transferred onto PVDF membranes, and incubated for 1 hour in TBS-T (tris-buffered saline and 0.1% Tween 20) containing 5% bovine serum albumin (BSA). Membranes are then incubated overnight at 4° C. with primary antibodies against occludin (Invitrogen, Calif., USA; 1:1000), claudin-5 (Invitrogen; 1:1000), and ZO-1 (Invitrogen; 1:1000), washed in TBS-T, and incubated for 1 hour at room temperature with corresponding peroxidase-conjugated secondary antibodies (1:5000; KPL, Gaithersburg, Md.). All blots are stripped and re-incubated with β-actin antibodies (1:5000, Sigma) as a loading control. The peroxidase reaction is developed with an ECL-plus detection kit (Amersham BioScience, Piscataway, N.J.). Intensity of the bands is measured by an Image Gauge version. 4.0 program (FUJI Photo Film Co., Ltd).
The bEnd 3 cells grown to confluence on coverslips are subjected to the indicated treatments. […]
To mimic ischemia-like conditions in vitro, immortalized mouse brain endothelial (bEND3) cells were exposed to 6 hours of hypoxia and 3 hours of reoxygeneation with or without the administration of tPA at a dose of 20 μ/ml. […] BBB integrity was evaluated by transendothelial membrane electrical resistance (TEER) measurement, MMP-9 activity, and the alteration of tight junction proteins following in vitro H/R injury.
(In general: A western blot detects proteins with antibodies after separation by electrophoresis.)

In test [1] the test system is blood-brain barrier (BBB). The test can be described thus: BBB disruption: serum IgG in ischemic cortex by Western blot. Format: in vivo, rat. To be noted: 24 hours after ischemic injury and tPA treatment.
Test [2] has as its system Male Sprague Dawley (SD) rats subjected to focal ischemia. The test can be described thus: Focal ischemia with delayed tPA in rats: cerebral hemorrhage, infarct volume, brain swelling. Format: in vivo, rat. To be noted: 24 hours post-stroke; tPA 5 mg/kg via femoral vein at 4.5 hours; progesterone i.p. at 2 hours. Here is the method:
2,3,5-tripheynltetrazolium (TTC)-stained brain sections are used for quantification of intracerebral hemorrhage with a spectrophotometric hemoglobin assay. Samples typically are collected 19.5 hours after injury. The brain tissue is homogenized in 2 ml 0.05 M tris buffered saline and tween (TBS-T) followed by a 30-minute centrifugation (12,000 rpm) and re-centrifugation for 15-minutes at 10,000 rpm. Then, 200 μl reagent (QuantiChrom™ Hemoglobin Assay Kit; BioAssay Systems) is added to a 50 μl supernatant. Optical density is measured at 405 nm with a spectrophotometer.
Brain edema/swelling are estimated by measuring the hemispheric areas of each 2-mm thick brain slices using Image J software (NIH, Bethesda, […]., USA), typically 24 hours after MCAO. Edema formation is calculated as hemispheric enlargement and expressed as a percentage of the normal areas in the contralateral hemisphere.
Male Sprague Dawley (SD) rats were subjected to focal ischemia, reperfused at 4.5 hours and then treated with tPA (5 mg/kg body weight; via femoral vein) at 4.5 hours or by combined progesterone (given by intraperitoneal injection at 2 hours) plus tPA (given at 4.5 hours). Rats were killed at 24 hours after ischemia, brains were perfused with saline, and coronal sections (2 mm thick) were stained with 2,3,5-triphenyltetrazolium chloride to quantify infarct volumes. […]

In another test the test system is MMP-9. The test can be described thus: Active MMP-9 fluorometric FRET peptide assay of ischemic cortex lysates. Format: in vivo, rat. To be noted: 24 hours after ischemia; tPA at 4.5 hours; vs control and tMCAO groups. Here is the method:
A Fluorimetric SensoLyte™ 490 kit (AnaSpec Corp., San Jose, Calif. USA) is used to quantify the specific enzymetic activity of active MMP-9 by using a fluorescence resonance energy transfer peptide containing a fluorescent donor and quenching acceptor (Lin, Hou et al. 2008). The samples (100 μg) are placed in a 96-well plate containing 50 μl of assay buffer. The proteolytic resonance energy transfer peptide is expressed as a fold change in fluorescence intensity at excitation of 355 nm/emission of 460 nm.
For in vivo evaluation, Male SD rats were subjected to MCAO, reperfused at 4.5 hours and then treated with tPA only (5 mg/kg body weight via femoral vein) at 4.5 hours post-stroke or with progesterone (intraperitoneally) at 2 hours post-stroke plus tPA at 4.5 hours post-stroke. Rats were killed at 24 hours post-ischemia and their brains perfused for evaluation of cerebral hemorrhage, brain swelling, BBB permeability, MMP-9 activity, and the alteration of tight junction proteins.
To directly determine MMP-9 activity after ischemia, proteolytic activity of MMP-9 was measured using a fluorescence resonance energy transfer peptide. […] Consistent with the Western blot results, exposure of cells to H/R and tPA for 9 hours reduced the detected levels of occludin, as compared to control bEND 3 cells, while MMP-9 levels were increased in cells exposed to H/R and tPA for 9 hours.

Regarding “tPA: serum protease acting specifically on serum plasminogen; also known as alteplase, available commercially as Activase”, the “Detected levels of occludin (immunofluorescence)” value with occludin (bEND3 cells exposed to H/R and tPA for 9 hours, progesterone pretreatment) is given as “reduced”. Moreover, in the test on occludin (bEND3 cells, tPA with H/R), the “Expression of occludin (Western blot)” value is recorded as “markedly decreased”. Also, the “Increase of IgG levels in ischemic cortex” value in test [1] is “up to 2 ×”. Besides, the “Hemorrhage volume (hemoglobin in perfused brain)” value in test [2] is given as “induced cerebral hemorrhage”. Besides, in the test with MMP-9, the “MMP-9 activity (FRET peptide)” value is on record as “significantly higher”.
